Publication PMC9517990 (Communications Biology, 2022)

Experiments:
[1] = target: neuraminidase of A/South Korea/90207/2020 PA-I38T virus (Influenza A virus (A(H1N1)pdm09), UniProt A0A0X9QTS2); format: biochemical
[2] = target: neuraminidase of A/South Korea/90207/2020 NA-H275Y + PA-I38T virus (Influenza A virus (A(H1N1)pdm09), UniProt A0A0X9QTS2, H275Y); format: biochemical
[3] = target: neuraminidase of A/South Korea/90207/2020 NA-H275Y virus (Influenza A virus (A(H1N1)pdm09), UniProt A0A0X9QTS2, H275Y); format: biochemical
[4] = test system: A/South Korea/90207/2020 NA-H275Y virus; format: cell-based, influenza A(H1N1)pdm09 virus
[5] = test system: A/South Korea/90207/2020 NA-H275Y + PA-I38T virus; format: cell-based, influenza A(H1N1)pdm09 virus
[6] = test system: A/South Korea/90207/2020 PA-I38T virus; format: cell-based, influenza A(H1N1)pdm09 virus
[7] = read-out: EC50 nM ± SD (column headed IC50; footnote: EC50)

CCC(CC)[C@H](NC(C)=O)[C@@H]1[C@H](O)[C@@H](C(=O)O)C[C@H]1N=C(N)N [Peramivir, peramivir]
IC50 [1]: 0.26 nM
IC50 fold change compared to WT [1]: 2 fold
IC50 [2]: 16.2 nM
IC50 [3]: 16.8 ± 3.1 nM

O=C1c2c(O)c(=O)ccn2N([C@@H]2c3ccccc3SCc3c2ccc(F)c3F)[C@@H]2COCCN12 [Baloxavir, Baloxavir acid]
EC50 fold change compared to WT [4]: 1 fold
EC50 [4, 7]: 1.2 ± 0.3 nM
EC50 fold change compared to WT [5]: 190 fold
EC50 [5, 7]: 194 nM
EC50 fold change compared to WT [6]: 373 fold
EC50 [6, 7]: 380 nM
